The record followed here is patent US11466032B2, “Cytotoxic agents” (FEMTOGENIX LIMITED, priority 2017, dated 2022).

As usually defined, the IC50 is the concentration needed to halve the response being measured. A lower IC50 goes with greater potency in that assay.

Data set [1] relates to HexA and MS1 DNA fragments. In words: DNA footprinting. The format is binding. The conditions noted are these: X is any base, Y is G or C, W is A or T; overnight incubation. The procedure:
The sequence selectivity of 26 and 34 was investigated using a modification of the previously established DNA footprinting assay^25. Following an overnight incubation of the ligand-DNA complexes, the mixture was mixed with strand separation buffer containing 10 mM EDTA, 10 mM NaOH, 0.1% bromophenol blue, 80% formamide and incubated at 100° C. for 3 min. The mixture was then immediately cooled on ice and run on an 8% denaturing gel.
Footprinting reactions were performed as previously described^[5] using the DNA fragments HexA and HexB, which together contain all 64 symmetrical hexanucleotide sequences^[6], and MS1 that contains all possible […] tetranucleotide sequences^[7]. The DNA fragments were obtained by cutting the parent plasmids with HindIII and SacI (for HexA and MS1) or EcoRI and PstI (for HexB), and were labelled at the 3′-end of the HindIII or EcoRI sites with [α-^32P]dATP using reverse transcriptase or exo-Klenow fragment. After gel purification, the radiolabelled DNA was dissolved in 10 mM Tris-HCl pH 7.5 containing 0.1 mM EDTA, at a concentration of about 10 c.p.s per μL as determined on a hand held Geiger counter. 1.5 μL of radiolabelled DNA was mixed with 1.5 μL ligand that had been freshly diluted in 10 mM Tris-HCl pH 7.5, containing 10 mM NaCl. […]

The next data set has as its system SW 620. In words: MTT cytotoxicity assay, 72 hour incubation. The format is cell-based. How it is done:
(§1) The cytotoxicity of compounds 26, 34, 50,58 and 68 were evaluated in a variety of cell lines using the standard MTT assay for a 72 hour incubation period (Table 1).
(§2) Tumor cell lines were maintained in RPMI1640 medium supplemented with 10% heat-inactivated fetal bovine serum, 2 mM L-glutamine and 1 mM sodium pyruvate. 1800 cells per well were seeded in a volume of 180 μl in a 96-well flat bottom polystyrene plate. The cells were allowed to adhere overnight at 37° C. in a CO2 incubator. Ligands were initially formulated in DMSO, and stocks stored at −80° C. They were then further formulated at lox concentration in RPMI1640 medium. 20 ul of diluted samples were added into each treatment well. On each plate, blank wells with no cells, and untreated wells containing cells, were included. Plates were then cultured at 37° C. in a CO2 incubator for 72 hrs. Cytotoxicity was evaluated using a tetrazolium salt-based assay, the MT assay. After 72 hours, the supernatant was removed from each well and 200 μl of a sterile filtered 500 μg/ml MT solution in water added to each well. The plates were then incubated at 37° C. in a CO2 incubator for 4 hrs. The supernatant was then removed and the formazan crystals formed solubilized by adding 150 μl of DMSO to each well. The plate was then read on a plate reader at 540 nm, and percentage cell survival calculated as follows: ((mean absorbance treated wells at concentration x—mean absorbance blank wells)÷(mean absorbance untreated wells at concentration x—mean absorbance blank wells))×100. Data were plotted as concentration in nM vs. % cell survival in Microsoft Excel, and IC50 values (concentration where cell survival is reduced by a half) were determined from the graph.
(Formazan colour is commonly taken as a measure of viable cells.)

A further data set relates to ZR 75-1. In words: MTT cytotoxicity assay, 72 hour incubation. The format is cell-based. The settings on record: Homo sapiens, 3 runs. How it is done:
as §1, §2

The subject of another data set is SK-BR-3. In words: MTT cytotoxicity assay, 72 hour incubation. The format is cell-based. The conditions noted are these: Homo sapiens, 3 runs. How it is done: as §1, §2
In another data set the test system is SW48. In words: MTT cytotoxicity assay, 72 hour incubation. The format is cell-based. How it is done:
as §1, §2

Another data set relates to MCF-7. In words: MTT cytotoxicity assay, 72 hour incubation. The format is cell-based. The conditions noted are these: Homo sapiens, MCF7, 3 runs. How it is done: as §1, §2
Another data set concerns LIM 1215. In words: MTT cytotoxicity assay, 72 hour incubation. The format is cell-based. The procedure:
as §1, §2

The test system of data set [2] is linear 32P-end-labelled TyrT DNA. In words: DNA interstrand cross-linking assay (denaturing polyacrylamide gel). The format is biochemical. The conditions noted are these: overnight incubation at 37° C. The procedure:
The ability of 26 and 34 to cross-link DNA was determined using an assay involving linear double-stranded HexA. TyrT and MS1 DNA fragments (FIG. 5).
Following denaturation conditions (treatment with formamide and heating at 65° C. for 5 min) the DNA strands were completely separated (see control C2, FIG. 6). The presence of an interstrand cross-link holds the denatured strands in close proximity, and cross-linked adducts therefore run as double-stranded DNA on polyacrylamide gel. Talirine and 34 were tested at >10 different concentrations, and the assay was repeated twice. […] C1 and C2 represent controls where C1 is DNA without formic acid, and C2 is DNA without formic acid, but heated thereby forming single strands. Cross-links are clearly detectable at concentrations as low as 10 nM. Using the same assay, the PBD dimer Talirine was also shown to cross-link DNA down to a concentration of 10 nM (FIG. 7).
The preparation of the DNA fragments (FIG. 5) has been previously described^[4]. Briefly, the sequence which had been cloned into the BamHI site of pUC18 was obtained by cutting with HindIII and EcoRI. Radiolabelled DNA fragments were prepared by filling in the 3′-end of the HindIII site with [α-^32P]dATP using Klenow DNA polymerase (exo-).
The radiolabelled DNA fragment was separated from the remainder of the plasmid DNA on a 6% non-denaturing polyacrylamide gel. […]

For the compound `COc1ccc(C2=CCN3C(=O)c4cc(OC)c(OCc5cccc(COc6cc7c(cc6OC)C(=O)N6CC=C(c8ccc(OC)cc8)C[C@H]6C=N7)n5)cc4N=C[C@@H]3C2)cc1` [Compound 26, (6aS,6a′S)-3,3′-((Pyridine-2,6-diylbis(methylene))bis(oxy))bis(2-methoxy-8-(4-methoxyphenyl)-7,10-dihydrobenzo[e]pyrido[1,2-α][1,4]diazepin-12(6aH)-one)], the “general code of the footprints (preferred binding sites)” value in data set [1] is “XYWWYWYX”. The IC50 in the data set on SW 620 (Homo sapiens, SW-620, 3 runs) was found to be 5 pM; in the data set on ZR 75-1, 5 pM; with SK-BR-3, 6 pM; with SW48 (Homo sapiens, SW48, 3 runs), 6 pM; in the data set on MCF-7, 6 pM; in the data set on LIM 1215 (LIM1215, 3 runs), 6 pM.
Regarding `COc1cc2c(cc1OCc1cccc(COc3cc4c(cc3OC)C(=O)N3CC=C(c5cncnc5)C[C@H]3C=N4)n1)N=C[C@@H]1CC(c3cncnc3)=CCN1C2=O` [Compound 50, (6aS,6a′S)-3,3′-((Pyridine-2,6-diylbis(methylene))bis(oxy))bis(2-methoxy-8-(pyrimidin-5-yl)-7,10-dihydrobenzo[e]pyrido[1,2-α][1,4]diazepin-12(6aH)-one)], the IC50 was determined as 1350 pM in the data set with SW 620 (Homo sapiens, SW-620, 3 runs); 3.1 pM in the data set with SW48 (Homo sapiens, SW48, 3 runs); 3.7 pM in the data set on LIM 1215 (LIM1215, 3 runs).
The like results for `COc1cc2c(cc1OCc1cccc(COc3cc4c(cc3OC)C(=O)N3CC=C(c5ccsc5)C[C@H]3C=N4)n1)N=C[C@@H]1CC(c3ccsc3)=CCN1C2=O` [Compound 58, (6aS,6a′S)-3,3′-((Pyridine-2,6-diylbis(methylene))bis(oxy))bis(2-methoxy-8-(thiophen-3-yl)-7,10-dihydrobenzo[e]pyrido[1,2-α][1,4]diazepin-12(6aH)-one)] were, in that order, 92 pM, 8.6 pM and 23 pM.
The corresponding values for `COc1cc2c(cc1OCc1cccc(COc3cc4c(cc3OC)C(=O)N3CC=C(c5cccs5)C[C@H]3C=N4)n1)N=C[C@@H]1CC(c3cccs3)=CCN1C2=O` [Compound 68, (6aS,6a′S)-3,3′-((Pyridine-2,6-diylbis(methylene))bis(oxy))bis(2-methoxy-8-(thiophen-2-yl)-7,10-dihydrobenzo[e]pyrido[1,2-α][1,4]diazepin-12(6aH)-one)] are 30 pM, 12 pM and 13 pM.
For Talirine [reference compound], the “lowest concentration at which DNA is cross-linked” value in data set [2] stood at 10 nM. Further, the values for the IC50 with SW 620 (3 runs), with SW48 (3 runs) and in the data set on LIM 1215 (3 runs) were 17 pM, 3 pM and 434 pM, respectively.
